In brackets after ≈: the same amount, converted by molar mass.
Conditions: buffer; pH 7.4; 200.0 µM

Row | Compound | solubility kinetic [µg/mL]
1 | Cc1ccc(N2CC(C(=O)Nc3cccnc3)CC2=O)cc1Cl (stereo not drawn) | 45.8 (≈ 139 µM)
2 | CN1CCOC(c2ccccc2)c2ccccc2C1.Cl (stereo not drawn) | > 43.5
3 | COCCCNC(=O)c1cc(S(=O)(=O)NCCCN2CCCC2=O)ccc1Cl | > 64.8
4 | COc1ccccc1CC(=O)NC1CCN(Cc2ccccc2)CC1 | > 50.8
5 | Cc1cc(C)nc(SCC(=O)N2CCc3ccccc32)n1 | 3.4 (≈ 11.4 µM)
6 | O=C(NCc1ccccc1C(F)(F)F)C1CCC(=O)N(C2CC2)C1 (stereo not drawn) | > 51.1
7 | O=c1[nH]c2ccccc2c(O)c1-[n+]1ccccc1.[Cl-] | 40.5
8 | CCN1CCN(c2nc3c(c(=O)[nH]2)CCC3)CC1 | 36.1 (≈ 145 µM)
9 | CC(C(=O)O/N=C(\N)c1cccnc1)c1ccc([N+](=O)[O-])cc1 (stereo not drawn) | 41.2 (≈ 131 µM)
10 | CCCCCC1CCC(C(=O)NCCN2CCOCC2)CC1 (stereo not drawn) | 35.6 (≈ 115 µM)
11 | Cc1cc(C)cc(NC(=S)Nc2cccc3ccccc23)c1 | 1.1 (≈ 3.59 µM)
12 | COC(=O)c1c(NC(=O)c2ccoc2C)sc(C)c1C | < 0.6
13 | CC1CN(C(=O)c2cc3cc([N+](=O)[O-])ccc3oc2=O)CC(C)O1 (stereo not drawn) | 46.1 (≈ 139 µM)
14 | CC1(C)N2CC3([N+](=O)[O-])CN1CC([N+](=O)[O-])(C2)C3 | 34.5 (≈ 135 µM)
15 | Cc1ccc(NC(=O)C2=CN3CCS(=O)(=O)N=C3C=C2)cc1 | 12.7 (≈ 40 µM)
16 | Cc1ccc(C(=O)Nc2ccc(N3CCN(C)CC3)cc2)c(Cl)c1 | > 51.6
17 | Cc1c(NC(=O)c2ccccc2NC(=O)c2ccccc2)cccc1C(=O)O | 54.5 (≈ 146 µM)
18 | CN(CC(=O)NCc1ccco1)S(=O)(=O)c1ccc(F)cc1 | > 49
19 | CCn1c([N+](=O)[O-])nc2c1c(=O)[nH]c(=O)n2C | > 35.9
20 | Cc1ccc(NC(=O)C2CCC(C(C)(C)C)CC2)cc1S(=O)(=O)N1CCOCC1 (stereo not drawn) | 3.5 (≈ 8.28 µM)
21 | Cc1noc(C)c1-c1nc(CS(=O)(=O)c2ccc(Cl)cc2)no1 | 3.8 (≈ 10.7 µM)
22 | O=C(COC(=O)c1ccc(Cl)c(Cl)c1)NC1CCCC1 | 2 (≈ 6.33 µM)
23 | O=C(c1ccc(Cn2cc([N+](=O)[O-])cn2)o1)N1CCCCCC1 | > 47.7
24 | CC(=O)c1ccc(NC(=O)Nc2cccnc2)cc1 | 32.4 (≈ 127 µM)

Row | Compound | solubility kinetic [µg/mL]
25 | Cc1cc(C)n2nc(SCCC(=O)NCc3ccccc3)nc2n1 | > 51.2
26 | CCOP(=O)(Cc1ccc(C#N)o1)OCC | > 36.5
27 | Cc1oc(S(=O)(=O)N2CCCC2)cc1C(=O)Nc1ccc(F)cc1 | 1.5 (≈ 4.26 µM)
28 | Nc1cc(N2CCCCCC2)c2nonc2c1[N+](=O)[O-] | 0.9 (≈ 3.25 µM)
29 | CCN1CCCC1CNC(=O)C(=O)NC (stereo not drawn) | > 32
30 | Cc1cccc(C(=O)OCC(=O)N(C)c2ccccc2)c1C | > 44.6
31 | S=c1nc(COc2ccccc2)[nH]c2ccccc12 | 8 (≈ 29.8 µM)
32 | Cc1ccc(C(=O)NC(C)c2ccc(-n3ccnc3)cc2)cc1 (stereo not drawn) | > 45.8
33 | COc1ccc(CCC(C)NCc2cccc(Br)c2)cc1 (stereo not drawn) | 34.1 (≈ 97.9 µM)
34 | CN(C(=O)CSc1nnc(N)s1)C1CCCCC1 | > 43
35 | O=C(O)CC[N+](=O)[O-] | > 17.9
36 | COC(=O)c1ccccc1N=Cc1c(O)[nH]c(=O)[nH]c1=O | 8.4 (≈ 29 µM)
37 | COC(=O)c1cc(S(=O)(=O)NCc2cccs2)c[nH]1 | > 45.1
38 | O=C(NCCCN1CCOCC1)C1Cc2c(ccc3ccccc23)O1 (stereo not drawn) | > 51.1
39 | Cn1c2ccccc2n2c(=O)cc(-c3ccccc3)c(C#N)c12 | < 0.2
40 | CCOc1cccc2sc(Cl)nc12 | 3.9 (≈ 18.3 µM)
41 | CN(C(=O)c1ccc2nc(N)sc2c1)c1ccccc1 | 40.8 (≈ 144 µM)
42 | CCCc1ccc(C(=O)NC(=O)c2ccccc2O)cc1 | 3.2 (≈ 11.3 µM)
43 | O=C(Cn1c(=O)n(CC2CS2)c2ccccc21)N1CCCCCC1 (stereo not drawn) | 44.3 (≈ 128 µM)
44 | O=S(=O)(N=C(NS(=O)(=O)c1ccc(Cl)cc1)c1ccccc1)c1ccc(Cl)cc1 | > 70.4
45 | CC(=O)Nc1ccc(/C=C/c2nc3ccccc3[nH]c2=O)cc1 | 27 (≈ 88.4 µM)
46 | CSc1ncccc1C(=O)OCC(=O)NCCc1ccccc1 | 27.9 (≈ 84.4 µM)
47 | Cc1nc(-c2ccccc2OC(F)(F)F)[nH]c(=O)c1Cl | 43.2 (≈ 142 µM)
48 | NC(=O)c1ccccc1NCC(=O)c1ccc(Cl)cc1 | 2.9 (≈ 10 µM)

Row | Compound | solubility kinetic [µg/mL]
49 | COc1ccc(C(=O)O/N=C(\C)c2cnccn2)cc1 | 9 (≈ 33.2 µM)
50 | CC(C)Nc1nc(NC2CCCC2)nc(N2CCOCC2)n1 | 16.3 (≈ 53.2 µM)
51 | Cc1cc2oc(=O)cc(CN3CCOCC3)c2cc1C(C)C | 3.4 (≈ 11.3 µM)
52 | COC(=O)c1ccc(CO/N=C/c2ccc(OC)cc2OC)cc1 | < 0.7
53 | Cc1ccc(CC(=O)Nc2ccc(Cl)cn2)cc1 | 8.4 (≈ 32.2 µM)
54 | O=S(=O)(c1ccc2ccccc2c1)N1CCOCC1 | 20.2 (≈ 72.8 µM)
55 | COc1cc(C(=O)NCCC(=O)NC(C)C)cc(OC)c1OC | > 48.7
56 | O=C(COC(=O)/C=C/c1ccc(OC(F)F)cc1)Nc1cccc(S(=O)(=O)N2CCOCC2)c1 | 7.3 (≈ 14.7 µM)
57 | CCNC(=S)NC(=NCc1cccnc1)Nc1nc(C)cc(C)n1 | 46.7 (≈ 136 µM)
58 | CC(=O)NCCC(=O)Nc1nc(-c2c[nH]c3ccccc23)cs1 | 42.9 (≈ 131 µM)
59 | COc1cccc(CNC(=O)CCCc2c[nH]c3ccccc23)c1 | 47 (≈ 146 µM)
60 | COc1ccc(/C=C/C(=O)NCc2ccc3c(c2)OCO3)cc1OC | 2.8 (≈ 8.2 µM)
61 | CCc1ccccc1NC(=O)Nc1ccon1 | 29.1 (≈ 126 µM)
62 | COC(=O)c1scc(C)c1N1C(=O)c2ccccc2C1=O | 4.2 (≈ 13.9 µM)
63 | Cc1ccc(/C=C(\C#N)C(=O)NC(C)c2ccccc2)o1 (stereo not drawn) | 8.6 (≈ 30.7 µM)
64 | CCOC(=O)c1[nH]c(=O)[nH]c1CNc1ccccc1C#N | > 42.9
65 | O=C(Nc1ccc(OC(F)F)cc1)c1ccccn1 | 31.5 (≈ 119 µM)
66 | O=C(OCc1cc2ccccc2[nH]c1=O)c1cccc([N+](=O)[O-])c1 | 0.8 (≈ 2.47 µM)
67 | COC(=O)c1ccc(NC(=O)CCCN2C(=O)NC(C)(C)C2=O)cc1 | > 52.1
68 | O=C1NC(c2ccccc2Br)=N/C1=C\c1ccco1 | 13.6 (≈ 42.9 µM)
69 | O=C(Nc1ccc(Cl)cc1)c1ccco1 | 30.8 (≈ 139 µM)
70 | CCN(C(=S)NC(=O)c1ccco1)c1cccc2ccccc12 | 46.5 (≈ 143 µM)
71 | Cc1cc(C)c2cc(C(=O)Nc3ccc4c(c3)OCO4)[nH]c2c1 | < 0.3
72 | Cc1c(Cc2ccccc2)c(=O)n2c([nH]c3ccccc32)c1C#N | < 0.2

Row | Compound | solubility kinetic [µg/mL]
73 | CCn1c(C)nc2cc(C(=O)NN=Cc3ccccc3OC(F)F)ccc21 | > 55.9
74 | O=C(CSc1nncn1-c1ccccc1)N1CCCC1 | > 43.3
75 | Cc1ccc(S(=O)(=O)N2CCN(C(=O)c3ccco3)CC2)c(C)c1 | 49 (≈ 141 µM)
76 | COc1cc2c(cc1OC)CC(=O)NC=C2 | > 32.9
77 | Cl.O=C(NCCN1CCOCC1)c1ccccc1OCc1ccccc1 | > 56.5
78 | Cc1ccccc1Oc1ncnc(N)c1[N+](=O)[O-] | 9.8 (≈ 39.8 µM)
79 | Cc1c(Cc2ccc3c(c2)OCO3)sc(NC(=O)C2CC2)c1C(N)=O | 1.8 (≈ 5.02 µM)
80 | CC(C)n1c(C(F)(F)F)nc2cc(C(=O)N3CCOCC3)ccc21 | > 51.2
81 | Cc1c(C)n(CCN(C)C)c2ncnc(NCc3ccccc3)c12 | 42.9 (≈ 133 µM)
82 | O=C(Nc1ccc2c(c1)OCO2)c1ccccn1 | 31.4 (≈ 130 µM)
83 | COc1ccc(CC(=O)OCc2csc(CC(=O)Nc3ccc(C)cc3)n2)cc1 | 4.8 (≈ 11.7 µM)
84 | COc1ccc(-c2cc(C(F)(F)F)c(C#N)c(=O)[nH]2)cc1 | 21.2 (≈ 72.1 µM)
85 | Cc1onc(-c2ccccc2Cl)c1C(=O)N1CCN(C=O)CC1 | > 50.1
86 | Cc1cccc(C(=O)Nc2ccc(NC(=O)CN3CCOCC3)cc2)c1 | 22.7 (≈ 64.2 µM)
87 | Cn1c(CNc2ccc(Br)cc2)nc2ccccc21 | 13 (≈ 41.1 µM)
88 | CC(C)N(C(=O)COC(=O)c1cccnc1Cl)c1ccccc1 | > 49.9
89 | Cc1ccc(N2CC(O)=C(c3ccccc3)C2=N)cc1 | > 39.6
90 | CCc1ccnc(NC(=O)Nc2ccc(OCc3ccccc3)cc2)c1 | < 0.2
91 | O=C(NC1CCCCC1)C1CC(=O)N(Cc2ccccc2)C1 (stereo not drawn) | > 45.1
92 | O=C(COC(=O)COc1ccccc1)NC1CCS(=O)(=O)C1 (stereo not drawn) | > 49.1
93 | COc1ccc(C(=O)Nc2cccc(S(=O)(=O)N3CCCC3)c2)cc1S(=O)(=O)N1CCOCC1 | 5.3 (≈ 10.4 µM)
94 | Cc1ccc(SCC(=O)c2ccc[nH]2)cc1 | 24.6 (≈ 106 µM)
95 | Cc1ccc(C)c(S(=O)(=O)NCCC(=O)N2CCCC(C(N)=O)C2)c1 (stereo not drawn) | > 55.1
96 | COC(=O)C1CCCN1S(=O)(=O)c1ccc([N+](=O)[O-])cc1 (stereo not drawn) | > 47.1

Row | Compound | solubility kinetic [µg/mL]
97 | CCC(=O)N(Cc1cc(=O)[nH]c2ccccc12)c1ccc(C)cc1 | > 48.1
98 | CCOC(=O)c1sc(=S)n(C)c1NC(=O)c1ccc(C(C)(C)C)cc1 | 3.4 (≈ 8.98 µM)
99 | C[N+](C)(C)c1ccccc1.[I-] | > 39.5
100 | COc1cc(OC)cc(C2=NC3(CCC(C)CC3)NC2=S)c1 (stereo not drawn) | 2.2 (≈ 6.91 µM)
101 | CCC(=O)NCc1c(C)c(C)n(Cc2ccccc2)c1-n1cccc1 | 4.6 (≈ 13.7 µM)
102 | Cc1ccc(Nc2ccc([N+](=O)[O-])ccc2=O)cc1 | < 0.3
103 | C=CCN1CC[C@]23c4c5ccc(O)c4O[C@H]2C(=O)CC[C@@]3(O)[C@H]1C5.Cl | > 54.6
104 | CC(C)(C)CC(=O)Nc1ccc(S(=O)(=O)N2CCCC2)cc1 | > 48.7
105 | O=C(COC(=O)/C=C/c1ccccc1Cl)Nc1cccnc1Cl | 2.9 (≈ 8.26 µM)
106 | COc1ccc(CC(=O)N2CCN(c3cccc(C)c3C)CC2)cc1 | 25.1 (≈ 74.2 µM)
107 | Cc1c(C(=O)NC2CCCC2)oc2ccccc12 | 33.9 (≈ 139 µM)
108 | Nc1cc(N)nc(SCC(=O)NCC(=O)Nc2ccc(F)c(F)c2F)n1 | 51.3 (≈ 133 µM)
109 | Cc1ccc(C(=O)Nc2ccccc2)cc1S(=O)(=O)N1CCN(C)CC1 | 31.8 (≈ 85.1 µM)
110 | Cl.Oc1ccc(-c2csc(Nc3cccc4ccccc34)n2)cc1O | 15.2
111 | CC(C)c1ccc(CNCCCSc2ncccn2)cc1.Cl | 49.1
112 | O=C1CCC([N+](=O)[O-])C(C2CC=CCC2)N1 (stereo not drawn) | > 33.6
113 | c1ccc2c(c1)COC(CN1CCCCC1)OC2 | 35.6 (≈ 144 µM)
114 | CC1(C)C2CCC1(C)C(OCCNCCOC(=O)Nc1ccccc1)C2 (stereo not drawn) | 10.2 (≈ 28.3 µM)
115 | N#Cc1ccc(NC(=O)CN2CCN(c3ccccn3)CC2)cc1 | 16.4 (≈ 51 µM)
116 | O=C(NCc1ccccn1)Nc1ccc(Cl)cc1 | 34 (≈ 130 µM)
117 | COc1ccc(CCC(=O)Nc2ccc(Cn3ccnc3)cc2)cc1 | 44.2 (≈ 132 µM)
118 | C=CCN1C(=S)CC(c2ccccc2)=Nc2ccccc21 | 3.3 (≈ 11.3 µM)

Source: PubChem BioAssay AID1996
